Reference: patent US9102591B2, “Benzamides” (H. Lundbeck A/S, priority 2012, dated 2015)

Target: P2X7 receptor (Homo sapiens (Human), UniProt Q99572)
Assay: P2X7 FLIPR assay (BzATP-stimulated calcium fluorescence, antagonist IC50)
Type: cell-based
Method in brief: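 Cells expressing P2X7 receptor (human, rat or mouse), plated 24 hours earlier in low-serum medium, loaded with Fluo-4 NW dye (30 min 37° C, 30 min room temperature).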

Sequence of P2X7 receptor (Q99572 whole entry): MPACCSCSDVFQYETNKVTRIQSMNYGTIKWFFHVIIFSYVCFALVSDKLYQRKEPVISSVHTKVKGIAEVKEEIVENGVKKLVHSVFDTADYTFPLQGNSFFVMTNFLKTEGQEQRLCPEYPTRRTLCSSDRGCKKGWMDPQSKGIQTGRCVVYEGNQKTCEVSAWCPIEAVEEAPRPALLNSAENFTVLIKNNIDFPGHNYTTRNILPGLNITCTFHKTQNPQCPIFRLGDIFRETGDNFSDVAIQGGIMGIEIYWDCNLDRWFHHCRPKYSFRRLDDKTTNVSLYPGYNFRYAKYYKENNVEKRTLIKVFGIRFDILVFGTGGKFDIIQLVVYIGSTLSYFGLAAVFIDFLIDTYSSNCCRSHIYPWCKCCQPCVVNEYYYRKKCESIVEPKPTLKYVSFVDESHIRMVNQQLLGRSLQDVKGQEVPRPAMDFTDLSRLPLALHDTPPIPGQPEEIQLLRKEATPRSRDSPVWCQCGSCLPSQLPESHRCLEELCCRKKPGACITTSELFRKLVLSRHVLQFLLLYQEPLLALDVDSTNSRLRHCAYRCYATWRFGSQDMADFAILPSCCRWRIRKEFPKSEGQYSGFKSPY

Row | IC50 [nM] | SMILES
1 | 6.4 | O=C(NCC(c1cnc(C(F)(F)F)nc1)C1CCC(F)(F)CC1)c1ccccc1Cl (single isomer, unassigned; (-)) [(−)2-chloro-N-[2-(4,4-difluorocyclohexyl)-2-[2-(trifluoromet] [(−)2-chloro-N-[2-(4,4-difluorocyclohexyl)-2-[2-(trifluoromethyl)pyrimidin-5-yl]ethyl]benzamide]
2 | 1.4 | COc1cccc(C(=O)NCC(CC2CC2)c2cnc(C(F)(F)F)nc2)c1C (single isomer, unassigned; (-)) [(−)N-[3-cyclopropyl-2-[2-(trifluoromethyl)pyrimidin-5-yl]pro] [(−)N-[3-cyclopropyl-2-[2-(trifluoromethyl)pyrimidin-5-yl]propyl]-3-methoxy-2-methyl-benzamide]
3 | 130 | O=C(NCC(CC1CC1)c1ccc(C(F)(F)F)nc1)c1c(F)cccc1F (single isomer, unassigned; (-)) [(−)N-[3-cyclopropyl-2-[6-(trifluoromethyl)-3-pyridyl]propyl]]
4 | 25 | O=C(NCC(CC1(C(F)(F)F)CC1)c1ccc(C(F)(F)F)nc1)c1cccc(Cl)c1Cl (single isomer, unassigned; (-)) [(−)2,3-dichloro-N-[3-[1-(trifluoromethyl)cyclopropyl]-2-[6-(] [(−)2,3-dichloro-N-[3-[1-(trifluoromethyl)cyclopropyl]-2-[6-(trifluoromethyl)-3-pyridyl]propyl]benzamide]
5 | 480 | CS(=O)(=O)c1ccccc1C(=O)NCC1(c2ccc(C(F)(F)F)nc2)CCC(F)(F)CC1 [N-((4,4-difluoro-1-(6-(trifluoromethyl)pyridin-3-yl)cyclohexyl)methyl)-2-(methylsulfonyl)benzamide]
6 | 56 | O=C(NCC(c1cnc(C(F)(F)F)nc1)C1CCOCC1)c1ccccc1Cl (single isomer, unassigned; (-)) [(−)2-chloro-N-[2-tetrahydropyran-4-yl-2-[2-(trifluoromethyl)] [(−)2-chloro-N-[2-tetrahydropyran-4-yl-2-[2-(trifluoromethyl)pyrimidin-5-yl]ethyl]benzamide]
7 | 61 | O=C(NCC(c1cnc(C(F)(F)F)nc1)C1CCC(F)(F)CC1)c1c(F)cccc1Cl (single isomer, unassigned; (-)) [(−)2-chloro-N-[2-(4,4-difluorocyclohexyl)-2-[2-(trifluoromet] [(−)2-chloro-N-[2-(4,4-difluorocyclohexyl)-2-[2-(trifluoromethyl)pyrimidin-5-yl]ethyl]-6-fluoro-benzamide]
8 | 9.4 | O=C(NCC(c1ccc(F)cc1)c1ccc(C(F)(F)F)nc1)c1cccc(Cl)c1Cl (single isomer, unassigned; (-)) [(−)2,3-dichloro-N-[2-(4-fluorophenyl)-2-[6-(trifluoromethyl)] [(−)2,3-dichloro-N-[2-(4-fluorophenyl)-2-[6-(trifluoromethyl)-3-pyridyl]ethyl]benzamide]
9 | 1200 | O=C(NCC1(c2ccc(Cl)cc2)CCOCC1)c1ccccc1C(F)(F)F [N-[4-(4-Chloro-phenyl)-tetrahydro-pyran-4-ylmethyl]-2-trifluoromethyl-benzamide]
10 | 78 | Cc1cccc(C(=O)NCC2(c3ccc(F)nc3)CCC(F)(F)CC2)c1F [N-((4,4-difluoro-1-(6-fluoropyridin-3-yl)cyclohexyl)methyl)-2-fluoro-3-methylbenzamide]
11 | 1.2 | O=C(NCC(CC1CC1)c1ccc(C(F)(F)F)nc1)c1c(Cl)cccc1Cl (single isomer, unassigned; (-)) [(−)2,6-dichloro-N-[3-cyclopropyl-2-[6-(trifluoromethyl)-3-py] [(−)2,6-dichloro-N-[3-cyclopropyl-2-[6-(trifluoromethyl)-3-pyridyl]propyl]benzamide]
12 | 11 | O=C(NCC(c1cnc(C(F)(F)F)nc1)C1CCOCC1)c1cccc(Cl)c1Cl (single isomer, unassigned; (-)) [(−)2,3-dichloro-N-[2-tetrahydropyran-4-yl-2-[2-(trifluoromethyl)pyrimidin-5-yl]ethyl]benzamide]
13 | 4.3 | O=C(NCC(c1cnc(C(F)(F)F)nc1)C1CCC(F)(F)CC1)c1cccc(Cl)c1Cl (single isomer, unassigned; (-)) [(−)2,3-dichloro-N-[2-(4,4-difluorocyclohexyl)-2-[2-(trifluor] [(−)2,3-dichloro-N-[2-(4,4-difluorocyclohexyl)-2-[2-(trifluoromethyl)pyrimidin-5-yl]ethyl]benzamide]
14 | 620 | COc1ccccc1C(=O)NCC1(c2ccc(Cl)cc2)CCOCC1 [N-[4-(4-Chloro-phenyl)-tetrahydro-pyran-4-ylmethyl]-2-methoxy-benzamide]
15 | 9 | COc1cccc(C(=O)NCC(CC2CC2)c2cnc(C(F)(F)F)nc2)c1C (single isomer, unassigned; (+)) [(+)N-[3-cyclopropyl-2-[2-(trifluoromethyl)pyrimidin-5-yl]pro] [(+)N-[3-cyclopropyl-2-[2-(trifluoromethyl)pyrimidin-5-yl]propyl]-3-methoxy-2-methyl-benzamide]
16 | 190 | O=C(NCC1(c2ccc(F)nc2)CCC(F)(F)CC1)c1ccccc1F [N-((4,4-difluoro-1-(6-fluoropyridin-3-yl)cyclohexyl)methyl)-] [N-((4,4-difluoro-1-(6-fluoropyridin-3-yl)cyclohexyl)methyl)-2-fluorobenzamide]
17 | 8.5 | O=C(NCC(c1ccc(F)cc1)c1ccc(C(F)(F)F)nc1)c1c(F)cccc1Cl (single isomer, unassigned; (-)) [(−)2-chloro-6-fluoro-N-[2-(4-fluorophenyl)-2-[6-(trifluorome] [(−)2-chloro-6-fluoro-N-[2-(4-fluorophenyl)-2-[6-(trifluoromethyl)-3-pyridyl]ethyl]benzamide]

More lines, now with the values behind:

Row | SMILES | IC50 [nM]
18 | Cc1cn(C2(CNC(=O)c3cccc(Cl)c3Cl)CCC(F)(F)CC2)cn1 [2,3-dichloro-N-((4,4-difluoro-1-(4-methyl-1H-imidazol-1-yl)cyclohexyl)methyl)benzamide] | 90
19 | O=C(NCC(CC1CC1)c1ccc(C(F)F)nc1)c1cccc(F)c1Cl (single isomer, unassigned; (+)) [(+)2-chloro-N-[3-cyclopropyl-2-[6-(difluoromethyl)-3-pyridyl] [(+)2-chloro-N-[3-cyclopropyl-2-[6-(difluoromethyl)-3-pyridyl]propyl]-3-fluoro-benzamide] | 800
20 | O=C(NCC(CC1CC1)c1ccc(C(F)(F)F)nc1)c1cccc(Cl)c1Cl (single isomer, unassigned; (+)) [(+)2,3-dichloro-N-[3-cyclopropyl-2-[6-(trifluoromethyl)-3-py] [(+)2,3-dichloro-N-[3-cyclopropyl-2-[6-(trifluoromethyl)-3-pyridyl]propyl]benzamide] | 2.6
21 | O=C(NCC(CC1(C(F)(F)F)CC1)c1ccc(C(F)(F)F)nc1)c1cccc(Cl)c1Cl (single isomer, unassigned; (+)) [(+)2,3-dichloro-N-[3-[1-(trifluoromethyl)cyclopropyl]-2-[6-(] [(+)2,3-dichloro-N-[3-[1-(trifluoromethyl)cyclopropyl]-2-[6-(trifluoromethyl)-3-pyridyl]propyl]benzamide] | 12
22 | O=C(NCC1(c2cncc(F)c2)CCC(F)(F)CC1)c1cccc(Cl)c1Cl [2,3-dichloro-N-((4,4-difluoro-1-(5-fluoropyridin-3-yl)cyclohexyl)methyl)benzamide] | 1.2
23 | O=C(NCC(c1ccc(Cl)cc1)C1CCOCC1)c1ccccc1Cl (stereo not drawn) [2-chloro-N-[2-(4-chlorophenyl)-2-tetrahydropyran-4-yl-ethyl]benzamide] | 14
24 | Cc1ncc(C2(CNC(=O)c3ccccc3Cl)CCC(F)(F)CC2)cn1 [2-chloro-N-[[4,4-difluoro-1-(2-methylpyrimidin-5-yl)cyclohexyl]methyl]benzamide] | 120
25 | O=C(NCC(c1cnc(C(F)(F)F)nc1)C1CCC(F)(F)CC1)c1ccccc1Cl (single isomer, unassigned; (+)) [(+)2-chloro-N-[2-(4,4-difluorocyclohexyl)-2-[2-(trifluoromet] [(+)2-chloro-N-[2-(4,4-difluorocyclohexyl)-2-[2-(trifluoromethyl)pyrimidin-5-yl]ethyl]benzamide] | 32
26 | Cc1ccc(C2(CNC(=O)c3cccc(Cl)c3Cl)CCC(F)(F)CC2)cn1 | 7.3
27 | O=C(NCC(CC1(C(F)(F)F)CC1)c1cnc(C(F)(F)F)nc1)c1ccccc1Cl (single isomer, unassigned; (+)) [(+)2-chloro-N-[3-[1-(trifluoromethyl)cyclopropyl]-2-[2-(trifluoromethyl)pyrimidin-5-yl]propyl]benzamide] | 2.4
28 | Cc1ncc(C(CNC(=O)c2cccc(Cl)c2Cl)CC2(C(F)(F)F)CC2)cn1 (single isomer, unassigned; (+)) [(+)2,3-dichloro-N-[2-(2-methylpyrimidin-5-yl)-3-[1-(trifluor] [(+)2,3-dichloro-N-[2-(2-methylpyrimidin-5-yl)-3-[1-(trifluoromethyl)cyclopropyl]propyl]benzamide] | 1.5
29 | Cc1ncc(C(CNC(=O)c2ccccc2Cl)c2ccncc2)cn1 (stereo not drawn) [2-chloro-N-[2-(2-methylpyrimidin-5-yl)-2-(4-pyridyl)ethyl]benzamide] | 1300
30 | Cc1ncc(C2(CNC(=O)c3cccc(Cl)c3Cl)CCC(F)(F)CC2)cn1 [2,3-dichloro-N-[[4,4-difluoro-1-(2-methylpyrimidin-5-yl)cyclohexyl]methyl]benzamide] | 8.6
31 | O=C(NCC(CC1CC1)c1ccc(C(F)(F)F)nc1)c1c(F)cccc1Cl (single isomer, unassigned; (+)) [(+)2-chloro-N-[3-cyclopropyl-2-[6-(trifluoromethyl)-3-pyridy] [(+)2-chloro-N-[3-cyclopropyl-2-[6-(trifluoromethyl)-3-pyridyl]propyl]-6-fluoro-benzamide] | 50
32 | CC(CNC(=O)c1cccc(F)c1Cl)(CC1CC1)c1cnc(C(F)(F)F)nc1 (stereo not drawn) [2-chloro-N-[3-cyclopropyl-2-methyl-2-[2-(trifluoromethyl)pyr] [2-chloro-N-[3-cyclopropyl-2-methyl-2-[2-(trifluoromethyl)pyrimidin-5-yl]propyl]-3-fluoro-benzamide] | 16
33 | Cc1ccc(C(CNC(=O)c2cccc(C)c2C)CC(C)C)cn1 (stereo not drawn) [2,3-Dimethyl-N-[4-methyl-2-(6-methyl-pyridin-3-yl)-pentyl]-benzamide] | 4.4
